{"source": "PubChem BioAssay (NCI)", "test_in_all_cases": "growth of human tumour cells (NCI), 48 h", "key": {"[1]": {"tested_on": "U251 CNS"}, "[2]": {"tested_on": "786-0 renal"}, "[3]": {"tested_on": "HL-60(TB) leukemia"}, "[4]": {"tested_on": "SK-MEL-28 melanoma"}, "[5]": {"tested_on": "OVCAR-5 ovarian"}, "[6]": {"tested_on": "DU-145 prostate"}, "[7]": {"tested_on": "COLO 205 colon"}, "[8]": {"tested_on": "CAKI-1 renal"}, "[9]": {"tested_on": "T-47D breast"}, "[10]": {"tested_on": "SK-MEL-5 melanoma"}, "[11]": {"tested_on": "MALME-3M melanoma"}, "[12]": {"tested_on": "RXF 393 renal"}, "[13]": {"tested_on": "OVCAR-4 ovarian"}, "[14]": {"tested_on": "NCI-H522 lung"}, "[15]": {"tested_on": "M14 melanoma"}, "[16]": {"tested_on": "RPMI-8226 leukemia"}, "[17]": {"tested_on": "MDA-MB-231 breast"}, "[18]": {"tested_on": "MDA-MB-435"}, "[19]": {"tested_on": "UACC-62 melanoma"}, "[20]": {"tested_on": "SK-MEL-2 melanoma"}, "[21]": {"tested_on": "SR leukemia"}, "[22]": {"tested_on": "SF-539 CNS"}, "[23]": {"tested_on": "UO-31 renal"}, "[24]": {"tested_on": "SW-620 colon"}, "[25]": {"tested_on": "HT29 colon"}, "[26]": {"tested_on": "OVCAR-8 ovarian"}, "[27]": {"tested_on": "SF-295 CNS"}, "[28]": {"tested_on": "HS 578T breast"}, "[29]": {"tested_on": "LOX IMVI melanoma"}, "[30]": {"tested_on": "IGROV1 ovarian"}, "[31]": {"tested_on": "EKVX NSCLC"}, "[32]": {"tested_on": "NCI-H226 lung"}, "[33]": {"tested_on": "SF-268 CNS"}, "[34]": {"tested_on": "A498 renal"}, "[35]": {"tested_on": "NCI-H460 lung"}, "[36]": {"tested_on": "MOLT-4 leukemia"}, "[37]": {"tested_on": "SNB-75 CNS"}, "[38]": {"tested_on": "SNB-19 CNS"}, "[39]": {"tested_on": "ACHN renal"}, "[40]": {"tested_on": "HOP-62 NSCLC"}, "[41]": {"tested_on": "NCI-H23 lung"}, "[42]": {"tested_on": "SN12C renal"}, "[43]": {"tested_on": "A549 NSCLC"}, "[44]": {"tested_on": "MCF7 breast"}, "[45]": {"tested_on": "HCT-15 colon"}, "[46]": {"tested_on": "HCT-116 colon"}, "[47]": {"tested_on": "PC-3 prostate"}, "[48]": {"tested_on": "NCI/ADR-RES ovarian"}, "[49]": {"tested_on": "TK-10 renal"}, "[50]": {"tested_on": "UACC-257 melanoma"}, "[51]": {"tested_on": "K-562 leukemia"}, "[52]": {"tested_on": "KM12 colon"}}, "note": "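The compound was tested at five concentrations on cells cultured in 96-well plates, with a 48-hour exposure period. TGI is the concentration that stops growth completely.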"}
{"smiles": "O=C1c2ccccc2-c2ccc(O)cc21", "values": [{"measurement": "TGI", "setting": "[1]", "value": 70.3, "unit": "µM"}, {"measurement": "TGI", "setting": "[2]", "value": "> 100", "unit": "µM"}, {"measurement": "TGI", "setting": "[3]", "value": 75.4, "unit": "µM"}, {"measurement": "TGI", "setting": "[4]", "value": 45.8, "unit": "µM"}, {"measurement": "TGI", "setting": "[5]", "value": 68.5, "unit": "µM"}, {"measurement": "TGI", "setting": "[6]", "value": 49.1, "unit": "µM"}, {"measurement": "TGI", "setting": "[7]", "value": 58.4, "unit": "µM"}, {"measurement": "TGI", "setting": "[8]", "value": 37.8, "unit": "µM"}, {"measurement": "TGI", "setting": "[9]", "value": 44.8, "unit": "µM"}, {"measurement": "TGI", "setting": "[10]", "value": 45.4, "unit": "µM"}, {"measurement": "TGI", "setting": "[11]", "value": 49.2, "unit": "µM"}, {"measurement": "TGI", "setting": "[12]", "value": 32.9, "unit": "µM"}, {"measurement": "TGI", "setting": "[13]", "value": 44.2, "unit": "µM"}, {"measurement": "TGI", "setting": "[14]", "value": 32.9, "unit": "µM"}, {"measurement": "TGI", "setting": "[15]", "value": 72.7, "unit": "µM"}, {"measurement": "TGI", "setting": "[16]", "value": "> 100", "unit": "µM"}, {"measurement": "TGI", "setting": "[17]", "value": 44.2, "unit": "µM"}, {"measurement": "TGI", "setting": "[18]", "value": 59.6, "unit": "µM"}, {"measurement": "TGI", "setting": "[19]", "value": 30.9, "unit": "µM"}, {"measurement": "TGI", "setting": "[20]", "value": 46.5, "unit": "µM"}, {"measurement": "TGI", "setting": "[21]", "value": 29.7, "unit": "µM"}, {"measurement": "TGI", "setting": "[22]", "value": 52.8, "unit": "µM"}, {"measurement": "TGI", "setting": "[23]", "value": 32.1, "unit": "µM"}, {"measurement": "TGI", "setting": "[24]", "value": "> 100", "unit": "µM"}, {"measurement": "TGI", "setting": "[25]", "value": "> 100", "unit": "µM"}, {"measurement": "TGI", "setting": "[26]", "value": 42.2, "unit": "µM"}, {"measurement": "TGI", "setting": "[27]", "value": 96.2, "unit": "µM"}, {"measurement": "TGI", "setting": "[28]", "value": "> 100", "unit": "µM"}, {"measurement": "TGI", "setting": "[29]", "value": 97.5, "unit": "µM"}, {"measurement": "TGI", "setting": "[30]", "value": 35.9, "unit": "µM"}, {"measurement": "TGI", "setting": "[31]", "value": 37.8, "unit": "µM"}, {"measurement": "TGI", "setting": "[32]", "value": "> 100", "unit": "µM"}, {"measurement": "TGI", "setting": "[33]", "value": 47.2, "unit": "µM"}, {"measurement": "TGI", "setting": "[34]", "value": 41.8, "unit": "µM"}, {"measurement": "TGI", "setting": "[35]", "value": 76.3, "unit": "µM"}, {"measurement": "TGI", "setting": "[36]", "value": 44.4, "unit": "µM"}, {"measurement": "TGI", "setting": "[37]", "value": "> 100", "unit": "µM"}, {"measurement": "TGI", "setting": "[38]", "value": 48.7, "unit": "µM"}, {"measurement": "TGI", "setting": "[39]", "value": 33.2, "unit": "µM"}, {"measurement": "TGI", "setting": "[40]", "value": "> 100", "unit": "µM"}, {"measurement": "TGI", "setting": "[41]", "value": 38.5, "unit": "µM"}, {"measurement": "TGI", "setting": "[42]", "value": 36.9, "unit": "µM"}, {"measurement": "TGI", "setting": "[43]", "value": 88, "unit": "µM"}, {"measurement": "TGI", "setting": "[44]", "value": 67.2, "unit": "µM"}, {"measurement": "TGI", "setting": "[45]", "value": 49.6, "unit": "µM"}, {"measurement": "TGI", "setting": "[46]", "value": "> 100", "unit": "µM"}, {"measurement": "TGI", "setting": "[47]", "value": 42.9, "unit": "µM"}, {"measurement": "TGI", "setting": "[48]", "value": 84.5, "unit": "µM"}, {"measurement": "TGI", "setting": "[49]", "value": 49.5, "unit": "µM"}, {"measurement": "TGI", "setting": "[50]", "value": 49.1, "unit": "µM"}, {"measurement": "TGI", "setting": "[51]", "value": 94.7, "unit": "µM"}, {"measurement": "TGI", "setting": "[52]", "value": 38.4, "unit": "µM"}]}
